Active and inactive are the calls of the source. The rule behind the calls is not given here.
Key:
SW480 [1] = experiment: Cell cycle arrest in human SW480 cells assessed as downregulation of cyclin-D1 protein expression at 0.35 to 1.4 uM incubated for 24 hrs by immunoblotting assay; type: functional, cell-based; conditions: dose 0.35-1.4 µM
HCT-116 [2] = experiment: Induction of apoptosis in human HCT-116 cells assessed as viable cells at 0.3 uM incubated for 48 hrs by Annexin V-FITC/PI staining based flow cytometry analysis (Rvb= 94.18%); type: functional; conditions: read-out: Activity
SW480 [3] = experiment: Anti-migratory activity against human SW480 cells assessed as downregulation of Snail protein expression at 0.35 to 1.4 uM incubated for 24 hrs by immunoblotting assay; type: functional, cell-based; conditions: dose 0.35-1.4 µM
SW480 [4] = experiment: Cell cycle arrest in human SW480 cells assessed as accumulation at G2/M phase at 0.7 uM incubated for 24 hrs by RNaseA/propidium iodide staining based flow cytometry (reference value: 24.74 %); type: functional
HCT-116 [5] = experiment: Antitumor activity against human HCT-116 cells xenografted Balb/c mouse assessed as decrease in Ki67 protein expression at 3 mg/kg,ip administrated for 18 days by 3 times per week by immunoblotting assay; type: functional, organism-based; conditions: time 18.0 day
HCT-116 [6] = experiment: Cell cycle arrest in human HCT-116 cells assessed as accumulation at G0/G1 phase at 0.3 uM incubated for 24 hrs by RNaseA/propidium iodide staining based flow cytometry (reference value: 48.44 %); type: functional
HCT-116 [7] = experiment: Cell cycle arrest in human HCT-116 cells assessed as accumulation at S phase at 0.3 uM incubated for 24 hrs by RNaseA/propidium iodide staining based flow cytometry (reference value: 19.94 %); type: functional
[8] = Toxicity in Balb/c mouse xenografted with human HCT-116 cells assessed as body weight change at 1 mg/kg,ip administrated for 18 days by 3 times per week; type: organism-based; conditions: in vivo, 432 h, time 18 day
HCT-116 [9] = experiment: Anti-migratory activity against human HCT-116 cells assessed as downregulation of N-cadherin gene expression at 0.075 to 0.3 uM incubated for 24 hrs by RT-PCR assay; type: functional, cell-based; conditions: dose 0.075-0.3 µM
SW480 [10] = experiment: Cell cycle arrest in human SW480 cells assessed as accumulation at G0/G1 phase at 0.35 uM incubated for 24 hrs by RNaseA/propidium iodide staining based flow cytometry (reference value: 54.49 %); type: functional
SW480 [11] = experiment: Induction of apoptosis in human SW480 cells assessed as late apoptotic cells at 0.7 uM incubated for 48 hrs by Annexin V-FITC/PI staining based flow cytometry analysis (Rvb= 5.26%); type: functional
HCT-116 [12] = experiment: Induction of apoptosis in human HCT-116 cells assessed as late apoptotic cells at 0.075 uM incubated for 48 hrs by Annexin V-FITC/PI staining based flow cytometry analysis (Rvb= 3.18%); type: functional
HCT-116 [13] = experiment: Cell cycle arrest in human HCT-116 cells assessed as accumulation at S phase at 0.075 uM incubated for 24 hrs by RNaseA/propidium iodide staining based flow cytometry (reference value: 19.94 %); type: functional
HCT-116 [14] = experiment: Cell cycle arrest in human HCT-116 cells assessed as accumulation at Sub-G1 phase at 0.3 uM incubated for 24 hrs by RNaseA/propidium iodide staining based flow cytometry (reference value: 3.66 %); type: functional
HCT-116 [15] = experiment: Antimigratory activity against highly liver metastatic human HCT-116 cells assessed as downregulation of N-cadherin gene expression at 0.075 to 0.3 uM incubated for 24 hrs by RT-PCR method; type: functional, cell-based; conditions: dose 0.075-0.3 µM
SW480 [16] = experiment: Cell cycle arrest in human SW480 cells assessed as accumulation at G2/M phase at 0.35 uM incubated for 24 hrs by RNaseA/propidium iodide staining based flow cytometry (reference value: 24.74 %); type: functional
HCT-116 [17] = experiment: Downregulation of cleaved caspase 8 protein expression in human HCT-116 cells with NDRG1 knockdown at 0.3 uM incubated for 24 hrs by immunoblotting assay; type: functional, cell-based
SW480 [18] = experiment: Antitumor activity against human SW480 cells assessed as upregulation of NDRG1 gene expression at 0.35 to 1.4 uM incubated for 24 hrs by RT-PCR method; type: functional, cell-based; conditions: dose 0.35-1.4 µM, DDE = dose-dependent effect
SW480 [19] = experiment: Induction of apoptosis in human SW480 cells assessed as early apoptotic cells at 1.4 uM incubated for 48 hrs by Annexin V-FITC/PI staining based flow cytometry analysis (Rvb= 2.07%); type: functional
HCT-116 [20] = experiment: Downregulation of c-Myc protein expression in human HCT-116 cells at 0.3 uM incubated for 24 hrs by immunoblotting assay; type: functional, cell-based
SW480 [21] = experiment: Cell cycle arrest in human SW480 cells assessed as accumulation at S phase at 1.4 uM incubated for 24 hrs by RNaseA/propidium iodide staining based flow cytometry (reference value: 16.7 %); type: functional
SW480 [22] = experiment: Cell cycle arrest in human SW480 cells assessed as accumulation at G0/G1 phase at 0.7 uM incubated for 24 hrs by RNaseA/propidium iodide staining based flow cytometry (reference value: 54.49 %); type: functional
SW480 [23] = experiment: Antitumor activity against human SW480 cells assessed as decrease in c-Myc expression at 0.35 to 1.4 uM incubated for 24 hrs by immunoblotting assay; type: functional, cell-based; conditions: dose 0.35-1.4 µM
HCT-116 [24] = experiment: Cell cycle arrest in human HCT-116 cells assessed as accumulation at G2/M phase at 0.3 uM incubated for 24 hrs by RNaseA/propidium iodide staining based flow cytometry (reference value: 28.41 %); type: functional
HCT-116 [25] = experiment: Cell cycle arrest in human HCT-116 cells assessed as downregulation of CDK6 protein expression at 0.075 to 0.3 uM incubated for 24 hrs by immunoblotting assay; type: functional, cell-based; conditions: dose 0.075-0.3 µM
SW480 [26] = experiment: Cell cycle arrest in human SW480 cells assessed as accumulation at G0/G1 phase at 1.4 uM incubated for 24 hrs by RNaseA/propidium iodide staining based flow cytometry (reference value: 54.49 %); type: functional
SW480 [27] = experiment: Induction of apoptosis in human SW480 cells assessed as viable cells at 1.4 uM incubated for 48 hrs by Annexin V-FITC/PI staining based flow cytometry analysis (Rvb= 92.6%); type: functional; conditions: read-out: Activity
HCT-116 [28] = experiment: Cell cycle arrest in human HCT-116 cells assessed as downregulation of cyclin-D1 protein expression at 0.075 to 0.3 uM incubated for 24 hrs by immunoblotting assay; type: functional, cell-based; conditions: dose 0.075-0.3 µM
HCT-116 [29] = experiment: Anti-migratory activity against human HCT-116 cells assessed as upregulation of E-cadherin protein expression at 0.075 to 0.3 uM incubated for 24 hrs by immunoblotting assay; type: functional, cell-based; conditions: dose 0.075-0.3 µM
HCT-116 [30] = experiment: Induction of apoptosis in human HCT-116 cells assessed as viable cells at 0.15 uM incubated for 48 hrs by Annexin V-FITC/PI staining based flow cytometry analysis (Rvb= 94.18%); type: functional; conditions: read-out: Activity
HCT-116 [31] = experiment: Induction of apoptosis in human HCT-116 cells assessed as late apoptotic cells at 0.15 uM incubated for 48 hrs by Annexin V-FITC/PI staining based flow cytometry analysis (Rvb= 3.18%); type: functional
SW480 [32] = experiment: Cell cycle arrest in human SW480 cells assessed as accumulation at Sub-G1 phase at 1.4 uM incubated for 24 hrs by RNaseA/propidium iodide staining based flow cytometry (reference value: 3.2 %); type: functional
HCT-116 [33] = experiment: Anti-migratory activity against human HCT-116 cells assessed as downregulation of Snail gene expression at 0.075 to 0.3 uM incubated for 24 hrs by RT-PCR assay; type: functional, cell-based; conditions: dose 0.075-0.3 µM

Compound: C[C@@H]1\C=C/C=C/C=C\C=C\C=C\C(=O)C2=C(O)C(=O)C[C@@]2(C)/C=C/C=C\C=C/C(=O)NC1
- Activity (SW480 [1]): Active
- viability at 0.3 µM (HCT-116 [2]): 40.1%
- Activity (SW480 [3]): Active
- Activity (SW480 [4]): 17.02%
- Activity (HCT-116 [5]): Active
- Activity (HCT-116 [6]): 62.85%
- Activity (HCT-116 [7]): 10.04%
- Activity [8]: Non-Toxic
- Activity (HCT-116 [9]): Active
- Activity (SW480 [10]): 54.89%
- Activity (SW480 [11]): 17.78%
- Activity (HCT-116 [12]): 6.71%
- Activity (HCT-116 [13]): 18.4%
- Activity (HCT-116 [14]): 5.19%
- Activity (HCT-116 [15]): Active
- Activity (SW480 [16]): 24.45%
- Activity (HCT-116 [17]): Active
- Activity (SW480 [18]): Dde
- Activity (SW480 [19]): 24.26%
- Activity (HCT-116 [20]): Active
- Activity (SW480 [21]): 11.23%
- Activity (SW480 [22]): 62.43%
- Activity (SW480 [23]): Active
- Activity (HCT-116 [24]): 22.13%
- Activity (HCT-116 [25]): Active
- Activity (SW480 [26]): 65.42%
- viability at 1.4 µM (SW480 [27]): 31%
- Activity (HCT-116 [28]): Active
- Activity (HCT-116 [29]): Active
- viability at 0.15 µM (HCT-116 [30]): 74.9%
- Activity (HCT-116 [31]): 9.22%
- Activity (SW480 [32]): 4.98%
- Activity (HCT-116 [33]): Active

Source: ChEMBL document CHEMBL5215006, “Antitumor Activity of Piceamycin by Upregulation of N-Myc Downstream-Regulated Gene 1 in Human Colorectal Cancer Cells” (J Nat Prod, 2022)
